Consider 1 molecule from PMC10694602, “Binding of perilipin 3 to membranes containing diacylglycerol is mediated by conserved residues within its PAT domain” (The Journal of Biological Chemistry, 2023).

One assay concerns the target T1, PLIN3 - S24A S93A (Homo sapiens, UniProt O60664, S24A/S93A).
T1 construct: Plasmids containing human full-length PLIN3 or fragments thereof were obtained by PCR amplification; made in house; host or cells: Escherichia coli BL21 (DE3) or NiCo21 (DE3)
T1 sequence (O60664 1-434 S24A/S93A): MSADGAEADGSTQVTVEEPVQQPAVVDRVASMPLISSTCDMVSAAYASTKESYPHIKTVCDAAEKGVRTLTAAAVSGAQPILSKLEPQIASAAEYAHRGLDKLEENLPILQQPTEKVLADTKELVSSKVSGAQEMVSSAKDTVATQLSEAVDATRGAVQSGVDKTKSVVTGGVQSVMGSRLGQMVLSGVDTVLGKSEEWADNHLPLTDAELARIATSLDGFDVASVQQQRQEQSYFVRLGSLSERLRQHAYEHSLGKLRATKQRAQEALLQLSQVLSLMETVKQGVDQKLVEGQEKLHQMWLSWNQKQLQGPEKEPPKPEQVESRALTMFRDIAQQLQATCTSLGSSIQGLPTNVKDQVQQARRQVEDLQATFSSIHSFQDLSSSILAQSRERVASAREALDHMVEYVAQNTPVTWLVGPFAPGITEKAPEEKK
Put plainly: MST binding to the PLIN3 serine double mutant. The following applies: short chain lipid as free ligand. The text has this: (§1) To validate this predicted mode of DAG binding by the PAT domain, we generated mutant versions of PLIN3 and assessed their impact on DAG binding by MST. First, we tested whether the simultaneous substitution of the five residues, Q22, S24, E86A, I89G, and S93A, would impact either binding of short chain DAG or that of liposomes containing low concentrations of DAG. […] To assess the impact of these residues in more detail, we first tested mutations in the two serine residues S24A and S93A. […] To confirm the importance of the glutamic acid residue at position 86 for binding of DAG, we also generated an E86A point mutant version.
(§2) Binding of purified PLIN3 protein and PLIN3 domains to liposomes, ALDs, or short chain lipids was determined by MST using a Monolith NT.115 system (Nanotemper Technologies). Proteins were labeled with a RED-tris-NTA His tag protein-labeling reagent following the manufacturer’s instructions (Nanotemper Technologies). Labeled proteins were added to a serial dilution of unlabeled lipids, liposomes, or ALDs, and the mixtures were loaded into MST standard capillaries to assess binding affinities. The dissociation constant was obtained by plotting fluorescence intensities of the protein–lipid complex against the concentrations of the unlabeled lipids, liposomes, or ALDs. […]

The target in a further assay is T2, PAT domain of PLIN3 (Homo sapiens, UniProt O60664).
T2 sequence (O60664 1-107 limits assumed): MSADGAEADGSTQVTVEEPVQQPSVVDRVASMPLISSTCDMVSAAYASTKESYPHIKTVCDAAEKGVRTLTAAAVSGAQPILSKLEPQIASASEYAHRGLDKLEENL
Put plainly: MST binding to the PAT domain of PLIN3. The note with it: short chain lipids as free ligands. An excerpt: (§3) To gain further insight into the binding of PLIN3 to DAG-containing membranes, we examined the contribution of each individual domain of PLIN3 towards lipid binding, that is, the N-terminal PAT domain, the central 11-mer repeat region, and the C-terminally located 4-helix bundle (Fig. 2A). Therefore, we expressed and purified proteins harboring individual domains of PLIN3 and first examined their binding of short-chain lipids.
(§4) Binding of purified PLIN3 protein and PLIN3 domains to liposomes, ALDs, or short chain lipids was determined by MST using a Monolith NT.115 system (Nanotemper Technologies). Proteins were labeled with a RED-tris-NTA His tag protein-labeling reagent following the manufacturer’s instructions (Nanotemper Technologies). Labeled proteins were added to a serial dilution of unlabeled lipids, liposomes, or ALDs, and the mixtures were loaded into MST standard capillaries to assess binding affinities. The dissociation constant was obtained by plotting fluorescence intensities of the protein–lipid complex against the concentrations of the unlabeled lipids, liposomes, or ALDs. Experiments were performed in triplicates and data were fitted using the KD Model of the MO.Affinity Analysis software (https://nanotempertech.com/, Nanotemper Technologies).

Another assay has as its target T3, 4-helix bundle of PLIN3 (Homo sapiens, UniProt O60664).
T3 sequence (O60664 245-434 limits assumed): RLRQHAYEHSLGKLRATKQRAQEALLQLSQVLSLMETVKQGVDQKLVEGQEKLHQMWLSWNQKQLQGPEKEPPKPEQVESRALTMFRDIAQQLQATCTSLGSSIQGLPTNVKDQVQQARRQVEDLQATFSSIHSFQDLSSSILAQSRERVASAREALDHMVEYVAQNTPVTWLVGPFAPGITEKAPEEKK
Description: MST binding to the 4-helix bundle of PLIN3. The following applies: short chain lipids as free ligands; n.d. = not detected; Fig. 2B; read-out: KD 4-helix.
From the text: as §3, §4

In a further assay the target is T4, PLIN3 (Homo sapiens, UniProt O60664).
T4 construct: Plasmids containing human full-length PLIN3 or fragments thereof were obtained by PCR amplification; made in house; host or cells: Escherichia coli BL21 (DE3) or NiCo21 (DE3)
T4 sequence (O60664 1-434): T1 sequence (O60664 1-434 S24A/S93A) with A24S, A93S
Put plainly: Microscale thermophoresis (MST) binding of lipids, liposomes or ALDs to full-length WT PLIN3. The following applies: short chain lipid as free ligand; Fig. 1I, Fig. 4C; read-out: KD.
From the text: To corroborate these findings, we analyzed binding of PLIN3 to liposomes using microscale thermophoresis (MST), an immobilization-free technology for measuring biomolecular interactions based on the diffusion of a fluorescently labeled protein along a microscopic temperature gradient. In this assay, the free protein diffuses faster than the one which has bound to a ligand. Ligands can range from small ions to low molecular weight compounds, liposomes, or even viruses ([24], [25], [26], [27], [28]). Variations in fluorescence intensity are then plotted against the ligand concentrations to determine a binding affinity. […] To determine the optimal DAG concentrations for PLIN3 binding, we varied the DAG concentrations in the ER-liposomes between 0 to 20 mol%.
as §4

The target in assay [1] is T5, PLIN3 - Q22A S24A E86A I89G S93A (Homo sapiens, UniProt O60664, E86A/I89G/Q22A/S24A/S93A).
T5 construct: Plasmids containing human full-length PLIN3 or fragments thereof were obtained by PCR amplification; made in house; host or cells: Escherichia coli BL21 (DE3) or NiCo21 (DE3)
T5 sequence (O60664 1-434 Q22A/S24A/E86A/I89G/S93A): T1 sequence (O60664 1-434 S24A/S93A) with Q22A, E86A, I89G
Description: MST binding to the PLIN3 quintuple mutant. The following applies: short chain lipid as free ligand; n.d.; Fig. S1.
From the text: as §1, §2

Where a chain is given by its changes, count along the chain named.

In general, Kd refers to the equilibrium constant for the complex coming apart. As for `CCCCCCCC(=O)OC[C@H](CO)OC(=O)CCCCCCC` [8:0 DAG, 1,2-dioctanoyl-sn-glycerol], the “fold decreased affinity versus WT PLIN3” value on PLIN3 - S24A S93A was found to be 20.9 fold. Besides, the dissociation constant (Kd) at PLIN3 - S24A S93A (Fig. S1) was 2090 nM; at PAT domain of PLIN3 (n.d. = not detected, Fig. 2B), 390 nM; at 4-helix bundle of PLIN3 it was 20.7 µM; at PLIN3, 100 nM. Moreover, at PAT domain of PLIN3, the “fold stronger binding than 8:0 PA” value was determined as 36 fold. Moreover, in assay [1], the KD entry is listed as “failed to bind”.
